What was measured:
[1] = Oxygen radical absorbance capacity (ORAC) assay, fluorescein probe with AAPH, Trolox standard; conditions: individual antioxidant compound
Description: (§1) Synergism was determined by comparing the antioxidant capacities of combinations of components measured by ORAC and HORAC, with expected or additive values of the individual compounds. The […], measure two different antioxidant properties, radical chain breaking and prevention of radical formation. The ORAC and HORAC assays are both fluorometric assays that use hydrogen atom transfer chemistry to detect oxidation of a fluorescent probe. In the ORAC assay, a free radical initiator is used to produce peroxyl radical probes, while in the HORAC assay, a hydroxyl radical initiator and fenton reagent are used to produce hydroxyl radical probes.
(§2) As reflected in the Examples below, the expected ORAC/HORAC is the combined (additive) antioxidant capacity of each individual antioxidant compound in the association, measured individually and assuming that each is functioning independently. The expected ORAC or HORAC value of a certain association can be calculated by using the following equation: ORAC or HORAC (total)=sum of ORAC or HORAC (compound n, individually) multiplied by the Percentage (compound n, of use in a cosmetic composition), n=1, 2, 3 . . . .
The ORAC assay is one of most commonly used methods to evaluate the capacity of antioxidants against ROS (reactive oxygen species), specific for peroxyl which is one of the most important free radicals present in the human skin environment. […] Azo-initiators are considered to produce the peroxyl radical by heating, which damages the fluorescent molecule, resulting in the loss of fluorescence. […] By quantifying the decay of fluorescence using a fluorometer, the degree of protection is determined comparing with a standard control antioxidant Trolox. […] Equipment that can automatically measure and calculate the capacity is commercially available, such as the VarioSkan flash microplate reader from Thermo Scientific.
References disclosing ORAC assays include: Cao G, Alessio H, Cutler R (1993). “Oxygen-radical absorbance capacity assay for antioxidants”. […]

[2] = Hydroxyl oxygen radical absorbance capacity (HORAC) assay, fluorescent probe with hydrogen peroxide and Cobalt(II) fluoride, Gallic acid standard; conditions: individual antioxidant compound
Description: as §1, §2
Similar to the ORAC assay, the HORAC assay is an in tubo assay designed to quantify the capacity of an antioxidant to avert the hydroxyl radical or anti-Fenton reaction. The hydroxyl radical, generated from hydrogen peroxide and Cobalt(II) fluoride (Fenton reaction), will quench a fluorescent probe by a hydrogen atom transfer reaction. Certain antioxidants can chelate the Co(II), preventing the generation of the hydroxyl radical and initially block or prevent the quenching of the probe. By quantifying the decay of fluorescence using a fluorometer, the degree of protection is determined comparing with a standard control antioxidant Gallic acid. The result is expressed in μMol equivalent of Gallic acid. Equipment that can automatically measure and calculate the capacity is commercially available, such as the VarioSkan flash microplate reader from Thermo Scientific. […]

SMILES	ORAC [1] [μmolTolox/g]	HORAC [2]
O=C1O[C@H]([C@@H](O)CO)C(O)=C1O [Vitamin C, ascorbic acid]	4456	No activity
O=C(O)[C@H]1O[C@@H](Oc2cc3oc(-c4ccccc4)cc(=O)c3c(O)c2O)[C@H](O)[C@@H](O)[C@@H]1O [baicalin]	4759	2592 μmolGAE/g
COc1cc(/C=C/C(=O)O)ccc1O [ferulic acid]	14272	9868 μmolGAE/g

Reference: patent publication US10898420B2, “Compositions containing phenolic compounds having synergistic antioxidant benefits” (L'OREAL, priority 2016, dated 2021)
